Seven compounds from ChEMBL document CHEMBL3875147 (Eur J Med Chem, 2016) can be followed below.

Data set [1] relates to Staphylococcus aureus. Nature of the data set: Antibacterial activity against Staphylococcus aureus ATCC 25923 incubated for 18 to 24 hrs by micro-dilution method. The format is functional. For orientation: Dilution methods test growth across graded concentrations, often in twofold steps.
For data set [2], the system named is Staphylococcus epidermidis. Nature of the data set: Antibacterial activity against Staphylococcus epidermidis ATCC 35984 incubated for 18 to 24 hrs by micro-dilution method. Type of data set: functional. The conditions noted are these: RP62A.
In data set [3] the test system is Enterococcus faecalis. Nature of the data set: Antibacterial activity against clinical isolate of Enterococcus faecalis incubated for 18 to 24 hrs by micro-dilution method. The format is functional.
Data set [4] relates to Escherichia coli. As to the kind of experiment: Antibacterial activity against Escherichia coli ATCC 25922 incubated for 18 to 24 hrs by micro-dilution method. Type of data set: functional.
The test system of data set [5] is Pseudomonas aeruginosa. As to the kind of experiment: Antibacterial activity against Pseudomonas aeruginosa ATCC 27853 incubated for 18 to 24 hrs by micro-dilution method. Type of data set: functional.
In data set [6] the test system is Pseudomonas aeruginosa. Nature of the data set: Antibacterial activity against clinical isolate of Pseudomonas aeruginosa incubated for 18 to 24 hrs by micro-dilution method. The format is functional.
The nature of data set [7]: Antibacterial activity against Aeromonas hydrophila ATCC 7966 incubated for 18 to 24 hrs by micro-dilution method. Type of data set: functional, Aeromonas hydrophila subsp. hydrophila ATCC 7966.
The test system of the next data set is Salmonella typhi. As to the kind of experiment: Antibacterial activity against clinical isolate of Salmonella typhi incubated for 18 to 24 hrs by micro-dilution method. The format is functional, Salmonella enterica subsp. enterica serovar Typhi. The conditions noted are these: Salmonella enterica.
The next data set has as its system Salmonella typhimurium. As to the kind of experiment: Antibacterial activity against clinical isolate of Salmonella typhimurium incubated for 18 to 24 hrs by micro-dilution method. Type of data set: functional, Salmonella enterica subsp. enterica serovar Typhimurium. The conditions noted are these: Salmonella enterica.
For data set [8], the system named is Sphingomonas paucimobilis. Nature of the data set: Antibacterial activity against Sphingomonas paucimobilis MTCC 6362 incubated for 18 to 24 hrs by micro-dilution method. The format is functional.
Data set [9] concerns Plesiomonas shigelloides. As to the kind of experiment: Antibacterial activity against Plesiomonas shigelloides ATCC 14029 incubated for 18 to 24 hrs by micro-dilution method. The format is functional.
Data set [10] has as its system Enterococcus faecalis. Nature of the data set: Potency index, ratio of MIC for ciprofloxacin to MIC for test compound for antibacterial activity against clinical isolate of Enterococcus faecalis. Type of data set: functional.
Data set [11] can be described thus: Hemolytic activity in human RBC at 100 uM measured after 1 hr by UV-vis absorbance method relative to control. The conditions noted are these: red blood cells (RBC), read-out: Activity. Type of data set: ADME, cell-based, Erythrocyte.
Data set [12] deals with Staphylococcus aureus. As to the kind of experiment: Potency index, ratio of MIC for ciprofloxacin to MIC for test compound for antibacterial activity against Staphylococcus aureus ATCC 25923. The format is functional.
Data set [13] relates to Staphylococcus epidermidis. As to the kind of experiment: Potency index, ratio of MIC for ciprofloxacin to MIC for test compound for antibacterial activity against Staphylococcus epidermidis ATCC 35984. Type of data set: functional, RP62A.
Data set [14] has as its system Escherichia coli. As to the kind of experiment: Potency index, ratio of MIC for ciprofloxacin to MIC for test compound for antibacterial activity against Escherichia coli ATCC 25922. Type of data set: functional.
Data set [15] has as its system Plesiomonas shigelloides. As to the kind of experiment: Potency index, ratio of MIC for ciprofloxacin to MIC for test compound for antibacterial activity against Plesiomonas shigelloides ATCC 14029. The format is functional.

SMILES strings stand for the structures. Converted amounts (≈) assume the structure as drawn.

Usually MIC stands for the lowest concentration found to suppress growth. A lower MIC goes with inhibition by little substance. For the compound `O=C(OCc1cn(-c2ccc(OC(F)(F)F)cc2)nn1)c1cn(C2CC2)c2cc(N3CCN(Cc4cn(-c5ccc(OC(F)(F)F)cc5)nn4)CC3)c(F)cc2c1=O`, the MIC worked out at 3.84 µM (≈ 3.12 µg/mL) in the data set on Staphylococcus aureus [1]; 1.92 µM (≈ 1.56 µg/mL) in [2]; 0.96 µM (≈ 0.781 µg/mL) against Enterococcus faecalis [3]; 3.84 µM (≈ 3.12 µg/mL) in the data set with Escherichia coli [4]; 3.84 µM (≈ 3.12 µg/mL) against Pseudomonas aeruginosa [5]; 15.4 µM (≈ 12.5 µg/mL) against Pseudomonas aeruginosa [6]. Moreover, the minimal inhibitory concentration (MIC) in data set [7] was 3.84 µM (≈ 3.12 µg/mL); against Salmonella typhi it was 30.7 µM (≈ 25 µg/mL); against Salmonella typhimurium it was 3.84 µM (≈ 3.12 µg/mL); in [8], 15.4 µM (≈ 12.5 µg/mL); in the data set on Plesiomonas shigelloides [9], 15.4 µM (≈ 12.5 µg/mL). For the same compound, the Ratio with Enterococcus faecalis [10] is reported as 19. The hemolysis at 1 h, 100 µM in data set [11] is 9.75%.

In the case of `C#CCOC(=O)c1cn(C2CC2)c2cc(N3CCN(CC#C)CC3)c(F)cc2c1=O`, the Ratio (in the data set on Staphylococcus aureus [12]; in data set [13]; in the data set on Escherichia coli [14]; with Plesiomonas shigelloides [15]) was 5 - 10 each time. Further, the MIC came to 1.92 µM (≈ 0.782 µg/mL) in the data set with Staphylococcus aureus [1]; 1.92 µM (≈ 0.782 µg/mL) in [2]; 30.7 µM (≈ 12.5 µg/mL) against Enterococcus faecalis [3]; 1.92 µM (≈ 0.782 µg/mL) in the data set with Escherichia coli [4]; 7.67 µM (≈ 3.13 µg/mL) in the data set with Pseudomonas aeruginosa [5]; 15.3 µM (≈ 6.25 µg/mL) against Pseudomonas aeruginosa [6]. Besides, the minimal inhibitory concentration (MIC) in data set [7] amounted to 61.4 µM (≈ 25 µg/mL); with Salmonella typhi it was 30.7 µM (≈ 12.5 µg/mL); in the data set on Salmonella typhimurium, 7.67 µM (≈ 3.13 µg/mL); in [8] it was 30.7 µM (≈ 12.5 µg/mL); in the data set on Plesiomonas shigelloides [9], 1.92 µM (≈ 0.782 µg/mL). Besides, the hemolysis at 1 h, 100 µM in data set [11] was determined as 4.57%.

For the compound `Cc1cc(C)cc(-n2cc(COC(=O)c3cn(C4CC4)c4cc(N5CCN(Cc6cn(-c7cc(C)cc(C)c7)nn6)CC5)c(F)cc4c3=O)nn2)c1`, the MIC was 71.2 µM (≈ 50 µg/mL) against Staphylococcus aureus [1]; 142 µM (≈ 100 µg/mL) in [2]; more than 142 µM in the data set with Enterococcus faecalis [3]; 142 µM (≈ 100 µg/mL) in the data set on Escherichia coli [4]; more than 142 µM against Pseudomonas aeruginosa [5]; more than 142 µM against Pseudomonas aeruginosa [6]. In addition, the MIC was more than 142 µM in data set [7]; more than 142 µM in the data set on Salmonella typhi; more than 142 µM against Salmonella typhimurium; more than 142 µM in [8]; 8.91 µM (≈ 6.25 µg/mL) against Plesiomonas shigelloides [9]. In addition, the hemolysis at 1 h, 100 µM in [11] came out at 8.79%.

For the compound `O=C(OCc1cn(-c2cccc(Cl)c2)nn1)c1cn(C2CC2)c2cc(N3CCN(Cc4cn(-c5cccc(Cl)c5)nn4)CC3)c(F)cc2c1=O`, the Ratio (in the data set with Staphylococcus aureus [12]; in [13]; in the data set with Escherichia coli [14]; in the data set with Plesiomonas shigelloides [15]) was 8 - 17 each time. In addition, the MIC stood at 1.09 µM (≈ 0.779 µg/mL) against Staphylococcus aureus [1]; 1.09 µM (≈ 0.779 µg/mL) in data set [2]; 8.75 µM (≈ 6.25 µg/mL) in the data set on Enterococcus faecalis [3]; 1.09 µM (≈ 0.779 µg/mL) in the data set with Escherichia coli [4]; 17.5 µM (≈ 12.5 µg/mL) in the data set on Pseudomonas aeruginosa [5]; 35 µM (≈ 25 µg/mL) against Pseudomonas aeruginosa [6]. The MIC was 35 µM (≈ 25 µg/mL) in [7]; 140 µM (≈ 100 µg/mL) in the data set with Salmonella typhi; 17.5 µM (≈ 12.5 µg/mL) in the data set on Salmonella typhimurium; 17.5 µM (≈ 12.5 µg/mL) in [8]; 1.09 µM (≈ 0.779 µg/mL) with Plesiomonas shigelloides [9]. Moreover, in [11], the hemolysis at 1 h, 100 µM was found to be 24.2%.

Consider `COc1ccccc1-n1cc(COC(=O)c2cn(C3CC3)c3cc(N4CCN(Cc5cn(-c6ccccc6OC)nn5)CC4)c(F)cc3c2=O)nn1`, for which the minimal inhibitory concentration (MIC) against Staphylococcus aureus [1] was found to be 35.4 µM (≈ 25 µg/mL); in data set [2] it was 35.4 µM (≈ 25 µg/mL); against Enterococcus faecalis [3], 35.4 µM (≈ 25 µg/mL); in the data set with Escherichia coli [4], 8.86 µM (≈ 6.25 µg/mL); against Pseudomonas aeruginosa [5], 17.7 µM (≈ 12.5 µg/mL); with Pseudomonas aeruginosa [6], 35.4 µM (≈ 25 µg/mL). For the same compound, the minimum inhibitory concentration (MIC) in data set [7] came to 70.8 µM (≈ 50 µg/mL); in the data set with Salmonella typhi, 35.4 µM (≈ 25 µg/mL); against Salmonella typhimurium it was 4.43 µM (≈ 3.13 µg/mL); in data set [8], 4.43 µM (≈ 3.13 µg/mL); against Plesiomonas shigelloides [9] it was 4.43 µM (≈ 3.13 µg/mL). The hemolysis at 1 h, 100 µM in [11] was found to be 7.65%.

On to `CCCCCc1ccc(-n2cc(COC(=O)c3cn(C4CC4)c4cc(N5CCN(Cc6cn(-c7ccc(CCCCC)cc7)nn6)CC5)c(F)cc4c3=O)nn2)cc1`, for which the MIC against Staphylococcus aureus [1] is 63.6 µM (≈ 50 µg/mL); in data set [2] it was 127 µM (≈ 100 µg/mL); against Enterococcus faecalis [3] it was more than 127 µM; in the data set with Escherichia coli [4] it was more than 127 µM; in the data set with Pseudomonas aeruginosa [5], more than 127 µM; in the data set with Pseudomonas aeruginosa [6], 31.8 µM (≈ 25 µg/mL). Further, the MIC in [7] was more than 127 µM; with Salmonella typhi, more than 127 µM; against Salmonella typhimurium it was more than 127 µM; in [8], more than 127 µM; in the data set with Plesiomonas shigelloides [9] it was 63.6 µM (≈ 50 µg/mL). In addition, in data set [11], the hemolysis at 1 h, 100 µM came out at 5.32%.

In the case of `O=C(OCc1cn(-c2ccccc2)nn1)c1cn(C2CC2)c2cc(N3CCN(Cc4cn(-c5ccccc5)nn4)CC3)c(F)cc2c1=O`, the MIC against Staphylococcus aureus [1] is 38.7 µM (≈ 25 µg/mL); in data set [2], 38.7 µM (≈ 25 µg/mL); in the data set on Enterococcus faecalis [3], more than 155 µM; with Escherichia coli [4], more than 155 µM; against Pseudomonas aeruginosa [5] it was more than 155 µM; in the data set on Pseudomonas aeruginosa [6], more than 155 µM. In addition, the MIC in data set [7] is more than 155 µM; with Salmonella typhi, more than 155 µM; in the data set with Salmonella typhimurium, more than 155 µM; in [8], more than 155 µM; in the data set with Plesiomonas shigelloides [9] it was 9.68 µM (≈ 6.25 µg/mL). Besides, the hemolysis at 1 h, 100 µM in data set [11] was 4.65%.
